Experimental data reported in patent US9238656B2, “Imidazo[4,5-b]pyridine derivatives as ALK and JAK modulators for the treatment of proliferative disorders” (priority 2012, dated 2016).
Where “and” joins values, the source holds several entries; their conditions need not be identical. Equal values may be shown once. Read-outs that look alike come from different tables or passages of the source.

Experiments:
[1] = target: baculovirus-expressed JAK2 kinase (Homo sapiens, UniProt O60674); assay: biochemical; details: 0.2 μM ATP; read-out: JAK2 Potency
Summary of the method: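 IC50 derived by variable-slope sigmoidal fit of percent inhibition against log compound concentration. Baculovirus-expressed JAK2 (15 ng/mL) phosphorylated a plate-bound biotinylated 15-mer peptide for 20 min at room temperature; detection by time-resolved fluorescence.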

[2] = target: baculovirus-expressed ALK (Homo sapiens, UniProt Q9UM73); assay: ALK kinase inhibition, TRF/ELISA; assay type: biochemical; details: read-out: ALK Potency
Summary of the method: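 Eu-PT66 anti-phosphotyrosine TRF read-out measured phosphorylation of plate-bound GST-PLC-γ (coated at 10 μg/mL). The phosphorylation was driven by 30 ng/mL ALK for 15 minutes at 37° C.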

Chain of baculovirus-expressed JAK2 kinase (O60674 whole entry): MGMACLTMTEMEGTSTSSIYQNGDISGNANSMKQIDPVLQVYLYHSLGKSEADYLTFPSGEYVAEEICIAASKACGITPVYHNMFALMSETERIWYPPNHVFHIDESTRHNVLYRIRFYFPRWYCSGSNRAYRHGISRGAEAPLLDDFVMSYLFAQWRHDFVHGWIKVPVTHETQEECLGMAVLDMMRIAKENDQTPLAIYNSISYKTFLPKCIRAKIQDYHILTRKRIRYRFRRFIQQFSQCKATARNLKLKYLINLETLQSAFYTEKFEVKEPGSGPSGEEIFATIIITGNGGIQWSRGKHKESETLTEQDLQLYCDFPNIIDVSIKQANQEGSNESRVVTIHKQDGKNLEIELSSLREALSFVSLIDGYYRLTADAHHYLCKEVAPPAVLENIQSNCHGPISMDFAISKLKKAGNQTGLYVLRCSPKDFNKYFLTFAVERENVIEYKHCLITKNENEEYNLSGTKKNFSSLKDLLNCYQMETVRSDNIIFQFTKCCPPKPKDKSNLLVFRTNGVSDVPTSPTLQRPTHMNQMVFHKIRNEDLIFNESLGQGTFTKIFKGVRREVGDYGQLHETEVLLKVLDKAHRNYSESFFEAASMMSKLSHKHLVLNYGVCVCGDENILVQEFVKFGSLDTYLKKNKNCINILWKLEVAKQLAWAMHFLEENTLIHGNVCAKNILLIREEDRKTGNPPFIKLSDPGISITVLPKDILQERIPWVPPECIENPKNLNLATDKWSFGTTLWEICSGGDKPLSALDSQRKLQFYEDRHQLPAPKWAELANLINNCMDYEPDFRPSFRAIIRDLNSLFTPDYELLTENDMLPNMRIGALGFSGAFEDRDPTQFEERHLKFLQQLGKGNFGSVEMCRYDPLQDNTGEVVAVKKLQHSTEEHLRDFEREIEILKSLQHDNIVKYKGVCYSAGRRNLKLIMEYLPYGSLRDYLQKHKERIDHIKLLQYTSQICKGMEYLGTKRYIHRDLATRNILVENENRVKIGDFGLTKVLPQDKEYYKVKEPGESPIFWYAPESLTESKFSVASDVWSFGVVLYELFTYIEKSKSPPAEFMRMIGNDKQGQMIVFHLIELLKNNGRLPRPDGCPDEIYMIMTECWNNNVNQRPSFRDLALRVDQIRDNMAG
Chain of baculovirus-expressed ALK (Q9UM73 19-1620): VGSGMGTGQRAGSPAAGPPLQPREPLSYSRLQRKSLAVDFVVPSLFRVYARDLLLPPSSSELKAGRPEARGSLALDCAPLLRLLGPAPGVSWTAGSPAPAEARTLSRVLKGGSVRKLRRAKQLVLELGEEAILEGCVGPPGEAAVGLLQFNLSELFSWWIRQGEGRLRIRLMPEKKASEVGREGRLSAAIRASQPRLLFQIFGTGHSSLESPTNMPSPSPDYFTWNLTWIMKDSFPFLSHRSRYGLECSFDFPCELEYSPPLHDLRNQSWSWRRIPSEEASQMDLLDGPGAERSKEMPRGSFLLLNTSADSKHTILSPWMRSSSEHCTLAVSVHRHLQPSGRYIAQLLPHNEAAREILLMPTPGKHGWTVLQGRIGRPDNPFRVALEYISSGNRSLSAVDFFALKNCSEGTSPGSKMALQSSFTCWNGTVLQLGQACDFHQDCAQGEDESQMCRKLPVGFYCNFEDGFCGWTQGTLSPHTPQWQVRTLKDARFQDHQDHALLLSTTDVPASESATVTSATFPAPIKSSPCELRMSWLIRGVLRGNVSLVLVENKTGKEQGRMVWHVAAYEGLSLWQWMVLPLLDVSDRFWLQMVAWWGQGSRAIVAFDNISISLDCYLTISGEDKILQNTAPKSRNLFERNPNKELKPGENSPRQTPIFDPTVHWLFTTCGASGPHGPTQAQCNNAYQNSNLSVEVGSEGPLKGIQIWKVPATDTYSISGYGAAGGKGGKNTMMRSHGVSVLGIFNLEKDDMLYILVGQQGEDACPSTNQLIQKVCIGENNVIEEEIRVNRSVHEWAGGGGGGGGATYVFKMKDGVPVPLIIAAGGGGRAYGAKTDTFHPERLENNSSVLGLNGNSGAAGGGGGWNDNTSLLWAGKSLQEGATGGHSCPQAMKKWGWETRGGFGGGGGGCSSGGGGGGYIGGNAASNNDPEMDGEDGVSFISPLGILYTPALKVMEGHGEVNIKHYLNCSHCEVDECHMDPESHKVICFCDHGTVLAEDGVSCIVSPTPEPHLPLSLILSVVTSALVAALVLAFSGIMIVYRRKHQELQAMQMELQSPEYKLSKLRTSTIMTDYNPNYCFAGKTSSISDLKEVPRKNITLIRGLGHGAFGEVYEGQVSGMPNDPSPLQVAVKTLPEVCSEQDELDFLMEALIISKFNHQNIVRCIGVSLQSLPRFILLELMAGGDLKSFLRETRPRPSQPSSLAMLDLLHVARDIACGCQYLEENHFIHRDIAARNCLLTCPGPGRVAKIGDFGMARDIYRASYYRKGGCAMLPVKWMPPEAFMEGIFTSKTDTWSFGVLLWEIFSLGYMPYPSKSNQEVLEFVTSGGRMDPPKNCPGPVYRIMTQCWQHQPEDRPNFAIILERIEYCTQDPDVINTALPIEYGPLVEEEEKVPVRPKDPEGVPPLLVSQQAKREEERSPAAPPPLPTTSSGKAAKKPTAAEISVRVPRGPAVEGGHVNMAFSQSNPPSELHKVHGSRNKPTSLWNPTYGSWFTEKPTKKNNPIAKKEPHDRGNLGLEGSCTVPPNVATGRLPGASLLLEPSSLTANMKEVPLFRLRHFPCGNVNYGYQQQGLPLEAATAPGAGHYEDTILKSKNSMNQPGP

Structure (SMILES) | IC50 [1] | IC50 [2] | IC50 ([2]; 1 μM ATP (Km level))
CN1CCN(CCOc2ccc(-c3nc4c(N[C@H]5[C@@H](C(N)=O)[C@@H]6C=C[C@H]5C6)c(Cl)cnc4[nH]3)cc2)CC1 [Compound CCL, (1S,2S,3R,4R)-3-(6-chloro-2-(4-(2-(4-methylpiperazin-1-yl)ethoxy)phenyl)-3H-imidazo[4,5-b]pyridin-7-ylamino)bicyclo[2.2.1]hept-5-ene-2-carboxamide] | < 100 nM | < 100 nM | –
NC(=O)[C@@H]1[C@H](Nc2c(Cl)cnc3[nH]c(-c4sc(N5CCCC5)nc4Cl)nc23)[C@H]2C=C[C@@H]1C2 [Compound CLXVI, (1S,2S,3R,4R)-3-[6-Chloro-2-(4-chloro-2-pyrrolidin-1-yl-thiazol-5-yl)-3H-imidazo[4,5-b]pyridin-7-ylamino]-bicyclo[2.2.1]hept-5-ene-2-carboxylic acid amide] | < 100 nM | < 100 nM | –
Cn1cc(-c2nc3c(N[C@@]45CCC(C)(C(O)C4)C5(C)C)c(Cl)cnc3[nH]2)cn1 (stereo partly drawn) [Compound CCII, (4S)-4-(6-chloro-2-(1-methyl-1H-pyrazol-4-yl)-3H-imidazo[4,5-b]pyridin-7-ylamino)-1,7,7-trimethylbicyclo[2.2.1]heptan-2-ol] | < 100 nM | > 10000 nM | –
CN(C)CCOc1cccc(-c2nc3c(N[C@H]4[C@@H](C(N)=O)[C@@H]5C=C[C@H]4C5)c(Cl)cnc3[nH]2)c1 [Compound CCXLVII, (1S,2S,3R,4R)-3-(6-chloro-2-(3-(2-(dimethylamino)ethoxy)phenyl)-3H-imidazo[4,5-b]234yridine-7-ylamino)pyridin[2.2.1]hept-5-ene-2-carboxamide] | < 100 nM | < 100 nM | –
NC(=O)[C@@H]1[C@H](Nc2c(Cl)cnc3[nH]c(-c4cccc(OCCN5CCOCC5)c4)nc23)[C@H]2C=C[C@@H]1C2 [Compound CCXXXVII, (1S,2S,3R,4R)-3-(6-chloro-2-(3-(2-morpholinoethoxy)phenyl)-3H-imidazo[4,5-b]pyridine-7-ylamino)pyridin[2.2.1]hept-5-ene-2-carboxamide] | < 100 nM and 100 to 1000 nM | < 100 nM | –
NC(=O)[C@@H]1[C@H](Nc2c(Cl)cnc3[nH]c(-c4sc(N5CCOCC5)nc4Cl)nc23)[C@H]2C=C[C@@H]1C2 [Compound CLX, (1S,2S,3R,4R)-3-[6-Chloro-2-(4-chloro-2-morpholin-4-yl-thiazol-5-yl)-3H-imidazo[4,5-b]pyridin-7-ylamino]-bicyclo[2.2.1]hept-5-ene-2-carboxylic acid amide] | < 100 nM | < 100 nM | –

Now from value to molecule:

IC50 [1] | IC50 [2] | IC50 ([2]; 1 μM ATP (Km level)) | Structure (SMILES)
< 100 nM | 100 to 1000 nM | – | NC(=O)[C@@H]1[C@H](Nc2c(Br)cnc3[nH]c(-c4cccc(F)c4)nc23)[C@H]2C=C[C@@H]1C2 [Compound CXXXII, (1S,2S,3R,4R)-3-[6-Bromo-2-(3-fluoro-phenyl)-3H-imidazo[4,5-b]pyridin-7-ylamino]-bicyclo[2.2.1]hept-5-ene-2-carboxylic acid amide]
< 100 nM | < 100 nM | – | COC[C@H](O)CN1CCC(n2cc(-c3nc4c(N[C@H]5[C@@H](C(N)=O)[C@@H]6C=C[C@H]5C6)c(Cl)cnc4[nH]3)cn2)CC1 [Compound LX, (1S,2S,3R,4R)-3-(6-Chloro-2-{1-[1-((R)-2-hydroxy-3-methoxy-propyl)-piperidin-4-yl]-1H-pyrazol-4-yl}-3H-imidazo[4,5-b]pyridine-7-ylamino)-bicyclo[2.2.1]hept-5-ene-2-carboxylic acid amide]
< 100 nM | 100 to 1000 nM | – | N#Cc1cccc(-c2nc3c(N[C@H]4[C@@H](C(N)=O)[C@@H]5C=C[C@H]4C5)c(Br)cnc3[nH]2)c1 [Compound CXLVI, (1S,2S,3R,4R)-3-[6-Bromo-2-(3-cyano-phenyl)-3H-imidazo[4,5-b]pyridin-7-ylamino]-bicyclo[2.2.1]hept-5-ene-2-carboxylic acid amide]
> 10000 nM | – | > 10000 nM | NC(=O)[C@@H]1[C@H](Nc2c(Cl)cnc3[nH]c(C4CCCNC4)nc23)[C@H]2C=C[C@@H]1C2 (single isomer, unassigned) [XIV]
